# Patent US20260356817A1, “AMINOPYRIMIDINE AND AMINOTRIAZINE DERIVATIVES AS MYC PROTEIN MODULATORS” (Sanford Burnham Prebys Medical Discovery Institute, priority 2022, published 2026)
# Read-outs that look alike come from different tables or passages of the source.
# System: Myc
# Assay: Myc inhibition assay: Myc expression per cell by anti-Myc immunofluorescence, high-content imaging
# Type: cell-based, human (patient-derived medulloblastoma xenograft cells)
# Conditions: medulloblastoma PDX cells, 4 h
# From the text: To identify Myc inhibitors, cells isolated from patient-derived orthotopic xenografts (PDXs) from patients with Myc-driven medulloblastoma were used. Specifically, PDX cells were propagated by transplantation directly into the cerebellum of immunodeficient (NSG) mice and were never passaged in vitro in order to maintain properties of the tumor from which they were derived. Tumor tissues were isolated from tumor-bearing animals, dissociated into a single-cell suspension, resuspended in serum-free media, and immediately plated in 384 well plates. After overnight recovery, compounds were added to each well, and cells were incubated for 4 hours before being fixed and stained with anti-Myc antibodies and with DAPI to label nuclei. Cells were then analyzed using high-content imaging to determine the levels of Myc expression per cell and IC50 values of the compounds.
# [1] = Table 1, read-out: IC50 (Myc inhibition)
# [2] = Table 2, read-out: MYC Inhibition IC50
SMILES,IC50 [1],IC50 [2]
"CCc1ccccc1Nc1nccc(-c2ccc3[nH]cnc3c2)n1 [Compound 80, 4-(1H-benzo[d]imidazol-5-yl)-N-(2-ethylphenyl)pyrimidin-2-amine]",1000 to 10000 nM,1000 to 10000 nM
"Cn1nccc1CNc1nccc(-c2ccc3[nH]cnc3c2)n1 [Compound 82, 4-(1H-benzo[d]imidazol-5-yl)-N-((1-methyl-1H-pyrazol-5-yl)methyl)pyrimidin-2-amine]",1000 to 10000 nM,1000 to 10000 nM
"Fc1cncc(Nc2nccc(-c3ccc4[nH]cnc4c3)n2)c1 [Compound 83, 4-(1H-benzo[d]imidazol-5-yl)-N-(5-fluoropyridin-3-yl)pyrimidin-2-amine]",1000 to 10000 nM,1000 to 10000 nM
"c1csc(Nc2nccc(-c3ccc4[nH]cnc4c3)n2)c1 [Compound 84, 4-(1H-benzo[d]imidazol-5-yl)-N-(thiophen-2-yl)pyrimidin-2-amine]",1000 to 10000 nM,1000 to 10000 nM
"c1coc(CNc2nccc(-c3ccc4[nH]cnc4c3)n2)c1 [Compound 85, 4-(1H-benzo[d]imidazol-5-yl)-N-(furan-2-ylmethyl)pyrimidin-2-amine]",1000 to 10000 nM,1000 to 10000 nM
"c1cc(-c2ccc3[nH]cnc3c2)nc(NC2CCCC2)n1 [Compound 88, 4-(1H-benzo[d]imidazol-5-yl)-N-cyclopentylpyrimidin-2-amine]",1000 to 10000 nM,1000 to 10000 nM
"FC(F)(F)c1cc(Nc2nccc(-c3ccc4[nH]cnc4c3)n2)ccc1Cl [Compound 89, 4-(1H-benzo[d]imidazol-5-yl)-N-(4-chloro-3-(trifluoromethyl)phenyl)pyrimidin-2-amine]",1000 to 10000 nM,1000 to 10000 nM
"c1cc(Nc2nccc(-c3ccc4[nH]cnc4c3)n2)cc(N2CCNCC2)c1 [Compound 92, 4-(1H-benzo[d]imidazol-5-yl)-N-(3-(piperazin-1-yl)phenyl)pyrimidin-2-amine]",1000 to 10000 nM,1000 to 10000 nM
"N#Cc1cccc(Nc2nccc(-c3ccc4[nH]cnc4c3)n2)c1 [Compound 94, 3-((4-(1H-benzo[d]imidazol-5-yl)pyrimidin-2-yl)amino)benzonitrile]",1000 to 10000 nM,1000 to 10000 nM
"c1cc(-c2ccc3[nH]cnc3c2)nc(NC2CCCCC2)n1 [Compound 96, 4-(1H-benzo[d]imidazol-5-yl)-N-cyclohexylpyrimidin-2-amine]",1000 to 10000 nM,1000 to 10000 nM
"c1cc(-c2ccc3[nH]cnc3c2)nc(Nc2ccc3c(c2)CCC3)n1 [Compound 97, 4-(1H-benzo[d]imidazol-5-yl)-N-(2,3-dihydro-1H-inden-5-yl)pyrimidin-2-amine]",1000 to 10000 nM,1000 to 10000 nM
"FC(F)(F)Oc1cccc(Nc2nccc(-c3ccc4[nH]cnc4c3)n2)c1 [Compound 100, 4-(1H-benzo[d]imidazol-5-yl)-N-(3-(trifluoromethoxy)phenyl)pyrimidin-2-amine]",200 to 1000 nM,200 to 1000 nM
"c1cc(-c2ccc3[nH]cnc3c2)nc(NC2CCOCC2)n1 [Compound 101, 4-(1H-benzo[d]imidazol-5-yl)-N-(tetrahydro-2H-pyran-4-yl)pyrimidin-2-amine]",1000 to 10000 nM,1000 to 10000 nM
"Cc1ccc(Nc2nccc(-c3ccc4[nH]cnc4c3)n2)cc1 [Compound 103, 4-(1H-benzo[d]imidazol-5-yl)-N-(p-tolyl)pyrimidin-2-amine]",200 to 1000 nM,200 to 1000 nM
"CC(C)Nc1nccc(-c2ccc3[nH]cnc3c2)n1 [Compound 104, 4-(1H-benzo[d]imidazol-5-yl)-N-isopropylpyrimidin-2-amine]",1000 to 10000 nM,1000 to 10000 nM
"FC(F)(F)c1cccc(Nc2nccc(-c3cn4ccnc4cn3)n2)c1 [Compound 107, 4-(Imidazo[1,2-a]pyrazin-6-yl)-N-(3-(trifluoromethyl)phenyl)pyrimidin-2-amine]",1000 to 10000 nM,1000 to 10000 nM
"COc1ccc(Nc2ccnc(Nc3cccc(F)c3)n2)cn1 [Compound 108, N^2-(3-fluorophenyl)-N^4-(6-methoxypyridin-3-yl)pyrimidine-2,4-diamine]",1000 to 10000 nM,1000 to 10000 nM
"COc1ccc(Oc2ccnc(Nc3cccc(C(F)(F)F)c3)n2)cn1 [Compound 109, 4-((6-methoxypyridin-3-yl)oxy)-N-(3-(trifluoromethyl)phenyl)pyrimidin-2-amine]",1000 to 10000 nM,1000 to 10000 nM
"Oc1ccc(Oc2ccnc(Nc3cccc(F)c3)n2)cn1 [Compound 110, 5-((2-((3-fluorophenyl)amino)pyrimidin-4-yl)oxy)pyridin-2-ol]",1000 to 10000 nM,1000 to 10000 nM
"FC(F)(F)c1cccc(Nc2nccc(NCCc3cnc[nH]3)n2)c1 [Compound 111, N^4-(2-(1H-Imidazol-4-yl)ethyl)-N^2-(3-(trifluoromethyl)phenyl)pyrimidine-2,4-diamine]",1000 to 10000 nM,1000 to 10000 nM
"FC(F)(F)c1cccc(Nc2nccc(N3CCc4[nH]cnc4C3)n2)c1 [Compound 112, 4-(1,4,6,7-tetrahydro-5H-imidazo[4,5-c]pyridin-5-yl)-N-(3-(trifluoromethyl)phenyl)pyrimidin-2-amine]",1000 to 10000 nM,1000 to 10000 nM
"Cc1cnc(Nc2cccc(C(F)(F)F)c2)nc1-c1cnc2nc[nH]c2c1 [Compound 113, 4-(1H-imidazo[4,5-b]pyridin-6-yl)-5-methyl-N-(3-(trifluoromethyl)phenyl)pyrimidin-2-amine]",1000 to 10000 nM,1000 to 10000 nM
"Cc1cc2nc[nH]c2cc1-c1ccnc(Nc2cccc(C(F)(F)F)c2)n1 [Compound 114, 4-(5-methyl-1H-benzo[d]imidazol-6-yl)-N-(3-(trifluoromethyl)phenyl)pyrimidin-2-amine]",1000 to 10000 nM,1000 to 10000 nM
"O=c1[nH]c2ccc(-c3ccnc(Nc4cccc(C(F)(F)F)c4)n3)cc2[nH]1 [Compound 116, 5-(2-((3-(trifluoromethyl)phenyl)amino)pyrimidin-4-yl)-1H-benzo[d]imidazol-2(3H)-one]",10000 to 100000 nM,10000 to 100000 nM
"O=c1[nH]c2ccc(-c3ccnc(Nc4cccc(F)c4)n3)cc2[nH]1 [Compound 117, 5-(2-((3-fluorophenyl)amino)pyrimidin-4-yl)-1,3-dihydro-2H-benzo[d]imidazol-2-one]",10000 to 100000 nM,10000 to 100000 nM

# Other lines, results leading:
IC50 [1],IC50 [2],SMILES
200 to 1000 nM,200 to 1000 nM,"FC(F)(F)Oc1ccccc1Nc1nccc(-c2ccc3[nH]cnc3c2)n1 [Compound 79, 4-(1H-benzo[d]imidazol-5-yl)-N-(2-(trifluoromethoxy)phenyl)pyrimidin-2-amine]"
200 to 1000 nM,200 to 1000 nM,"Fc1ccc(Nc2nccc(-c3ccc4[nH]cnc4c3)n2)cc1 [Compound 81, 4-(1H-benzo[d]imidazol-5-yl)-N-(4-fluorophenyl)pyrimidin-2-amine]"
200 to 1000 nM,200 to 1000 nM,"Clc1ccc(Nc2nccc(-c3ccc4[nH]cnc4c3)n2)cc1 [Compound 86, 4-(1H-benzo[d]imidazol-5-yl)-N-(4-chlorophenyl)pyrimidin-2-amine]"
200 to 1000 nM,200 to 1000 nM,"CC(C)(C)c1cccc(Nc2nccc(-c3ccc4[nH]cnc4c3)n2)c1 [Compound 87, 4-(1H-benzo[d]imidazol-5-yl)-N-(3-(tert-butyl)phenyl)pyrimidin-2-amine]"
< 200 nM,< 200 nM,"Oc1cccc(Nc2nccc(-c3ccc4[nH]cnc4c3)n2)c1 [Compound 90, 3-((4-(1H-benzo[d]imidazol-5-yl)pyrimidin-2-yl)amino)phenol]"
200 to 1000 nM,200 to 1000 nM,"NCCCOc1cccc(Nc2nccc(-c3ccc4[nH]cnc4c3)n2)c1 [Compound 91, N-(3-(3-aminopropoxy)phenyl)-4-(1H-benzo[d]imidazol-5-yl)pyrimidin-2-amine]"
200 to 1000 nM,200 to 1000 nM,"C#Cc1cccc(Nc2nccc(-c3ccc4[nH]cnc4c3)n2)c1 [Compound 93, 4-(1H-benzo[d]imidazol-5-yl)-N-(3-ethynylphenyl)pyrimidin-2-amine]"
< 200 nM,< 200 nM,"Cn1cnc2cc(-c3ccnc(Nc4cccc(C(F)(F)F)c4)n3)ccc21 [Compound 95, 4-(1-methyl-1H-benzo[d]imidazol-5-yl)-N-(3-(trifluoromethyl)phenyl)pyrimidin-2-amine]"
200 to 1000 nM,200 to 1000 nM,"Clc1ccc(Nc2nccc(-c3ccc4[nH]cnc4c3)n2)cc1Cl [Compound 98, 4-(1H-benzo[d]imidazol-5-yl)-N-(3,4-dichlorophenyl)pyrimidin-2-amine]"
200 to 1000 nM,200 to 1000 nM,"N#Cc1ccc(Nc2nccc(-c3ccc4[nH]cnc4c3)n2)cc1 [Compound 99, 4-((4-(1H-benzo[d]imidazol-5-yl)pyrimidin-2-yl)amino)benzonitrile]"
< 200 nM,< 200 nM,"c1cc(Nc2nccc(-c3ccc4[nH]cnc4c3)n2)cc(N2CCOCC2)c1 [Compound 102, 4-(1H-benzo[d]imidazol-5-yl)-N-(3-morpholinophenyl)pyrimidin-2-amine]"
< 200 nM,< 200 nM,"FC(F)(F)c1cccc(Nc2ncnc(-c3cnc4nc[nH]c4c3)n2)c1 [Compound 105, 4-(1H-Imidazo[4,5-b]pyridin-6-yl)-N-(3-(trifluoromethyl)phenyl)-1,3,5-triazin-2-amine]"
< 200 nM,< 200 nM,"FC(F)(F)c1cncc(Nc2nccc(-c3cnc4nc[nH]c4c3)n2)c1 [Compound 106, 4-(1H-imidazo[4,5-b]pyridin-6-yl)-N-(5-(trifluoromethyl)pyridin-3-yl)pyrimidin-2-amine]"
< 200 nM,< 200 nM,"Fc1cc(-c2ccnc(Nc3cccc(C(F)(F)F)c3)n2)cc2nc[nH]c12 [Compound 115, 4-(7-fluoro-1H-benzo[d]imidazol-5-yl)-N-(3-(trifluoromethyl)phenyl)pyrimidin-2-amine]"
